In patent US20160264593A1 (priority 2013, published 2016):

Assay: in vivo
Conditions: rat, in vivo; for Tmax: Tmax of 100; for MRT: MRT of 100
Protocol: 100 was administrated via iv route at 0.5, 1.0 and 1.5 mg/kg into SD rats. The blood, liver and brain tissue samples were collected at predetermined times from rats.
Twelve (12) female SD rats per group were dosed by iv with 100. The rats were fasted overnight prior to dosing, with free access to water. Foods were withheld for 2 hours post-dose. Blood, liver and brain tissue samples in two animals each group were collected at each time point, within 10% of the scheduled time for each time point. Two extra animals were used for analytic method development. Blood (>0.3 mL) were collected via aorta abdominalis in anaesthetic animalsinto tubes containing heparin at 15 min, 1, 2, 6, 10 and 24 hours after iv administration. Liver and brain tissues were collected immediately after animal death. The liver and brain tissues were excised and rinsed with cold saline to avoid blood residual. Upon collection, each sample was placed on ice and the blood samples were subsequently centrifuged (4° C., 11000 rpm, 5 min) to separate plasma. The obtained plasma, liver and brain tissue samples were stored at −70° C. until LC-MS/MS analysis.
AUC0-∞ (AUC/NF) is the area under the plasma concentration-time curve with last concentration extrapolated based on the elimination rate constant.

[1] = female, Sprague-Dawley (SD), iv, 0.5 mg/kg, 100 brain concentration
[2] = female, Sprague-Dawley (SD), iv, 0.5 mg/kg, 100 liver concentration
[3] = female, Sprague-Dawley (SD), iv, 1 mg/kg, 100 liver concentration
[4] = female, Sprague-Dawley (SD), iv, 1.5 mg/kg, 100 brain concentration
[5] = female, Sprague-Dawley (SD), iv, 1.5 mg/kg, 100 liver concentration
[6] = female, Sprague-Dawley, iv, 0.5 mg/kg, 100 plasma concentration
[7] = female, Sprague-Dawley, iv, 1 mg/kg, 100 plasma concentration
[8] = female, Sprague-Dawley, iv, 1.5 mg/kg, 100 plasma concentration

With `CN1CCN(C(=O)C2C3CCC(O3)C2C(=O)O)CC1` (stereo not drawn) [Compound 100, 3-(4-methylpiperazine-1-carbonyl)-7-oxa-bicyclo[2,2,1]-heptane-2-carboxylic acid] the AUC(0-inf) (female, SD, iv, 0.5 mg/kg) was 706 ng·h/mL, the AUC(0-t) (female, SD, iv, 0.5 mg/kg) was 696 ng·h/mL and the “Tmax of 100” value (female, SD, iv, 0.5 mg/kg) was 0.25 h. For the same compound, the Cmax (female, SD, iv, 0.5 mg/kg, Cmax of 100) was 1110 ng/mL, the Tmax (female, SD, iv, 0.5 mg/kg) was 0.25 h and the AUC(0-inf) (female, SD, iv, 1 mg/kg) was 2830 ng·h/mL. The AUC(0-t) (female, SD, iv, 1 mg/kg) was 1920 ng·h/mL, the “Tmax of 100” value (female, SD, iv, 1 mg/kg) was 0.25 h and the Cmax (female, SD, iv, 1 mg/kg, Cmax of 100) was 2380 ng/mL. The MRT (female, SD, iv, 1 mg/kg) was 2.68 h, the Tmax (female, SD, iv, 1 mg/kg) was 0.25 h and the AUC(0-inf) (female, SD, iv, 1.5 mg/kg) was 8640 ng·h/mL. The AUC(0-t) (female, SD, iv, 1.5 mg/kg) was 7400 ng·h/mL, the Cmax (female, SD, iv, 1.5 mg/kg, Cmax of 100) was 3660 ng/mL and the MRT (female, SD, iv, 1.5 mg/kg) was 2.57 h. It also gave a half-life (female, SD, iv, 1.5 mg/kg, T½ of 100) of 1.93 h, a concentration at 0.25 h [1] of 15.3 ng/g and a concentration at 0.25 hr [1] of 17.4 ng/g. For the same compound, the concentration at 1 hr [1] was 6.31 ng/g, the concentration at 0.25 h [2] was 520 ng/g and the concentration at 2 h [2] was 109 ng/g. For the same compound, the concentration at 6 h [2] was 4.8 ng/g, the concentration at 2 h (female, Sprague-Dawley (SD), iv, 0.5 mg/kg, 100 plasma concentration) was 22.6 ng/mL and the concentration at 0.25 h [3] was 1300 ng/g. The concentration at 1 h [3] was 865 ng/g, the concentration at 0.25 h [4] was 46.9 ng/g and the concentration at 1 h [4] was 28.2 ng/g. It also gave a concentration at 2 h [4] of 27.2 ng/g, a concentration at 6 h [4] of 4.23 ng/g and a concentration at 0.25 h [5] of 1980 ng/g. For the same compound, the concentration at 1 h [5] was 2140 ng/g, the concentration at 2 h [5] was 2400 ng/g and the concentration at 6 h [5] was 407 ng/g. The concentration at 10 h [5] was 5.25 ng/g, the 100 liver concentration (female, Sprague-Dawley (SD), iv, 1.5 mg/kg, 6 h) was 536 ng/g and the concentration at 0.25 h [6] was 1000 ng/mL. For the same compound, the concentration at 1 h [6] was 192 ng/mL, the concentration at 2 h [6] was 25.8 ng/mL and the 100 plasma concentration (female, Sprague-Dawley, iv, 0.5 mg/kg, 2 h) was 19.4 ng/mL. The concentration at 0.25 h [7] was 2120 ng/mL, the concentration at 1 h [7] was 354 ng/mL and the concentration at 6 h [7] was 3.27 ng/mL. It also gave an AUC(0-t) (female, Sprague-Dawley, iv, 1.5 mg/kg) of 696 to 7400 ng·h/mL, a concentration at 0.25 h [8] of 3780 ng/mL and a concentration at 1 h [8] of 1760 ng/mL. For the same compound, the concentration at 2 h [8] was 1310 ng/mL, the concentration at 6 h [8] was 263 ng/mL and the half-life (female, Sprague-Dawley, iv, 1.5 mg/kg, T1/2 of 100 in brain) was 1.67 to 1.93 h. For the same compound, the half-life (female, Sprague-Dawley, iv, 1.5 mg/kg, T1/2 of 100 in liver) was 0.78 to 2.01 h, the half-life (female, Sprague-Dawley, iv, 1.5 mg/kg, T1/2 of 100 in plasma) was 0.31 to 2.2 h and the Cmax (female, Sprague-Dawley, iv, 1.5 mg/kg, mean Cmax of 100 in brain) was 17.4 to 43.5 ng/g. For the same compound, the Cmax (female, Sprague-Dawley, iv, 1.5 mg/kg, mean Cmax of 100 in liver) was 586 to 2550 ng/g, the “AUC of 100 versus dose level (statement)” value was “increased proportionally” and the “100 detectable in brain tissue samples” value (iv) was “detectable”. The “100 detectable in liver tissue samples” value (iv) was “detectable”, the “100 in brain tissue” value (iv) was “below limit of quantification” and the “100 in liver tissue” value (iv) was “below limit of quantification”. For the same compound, the “AUCINF of 100” value (iv, 0.5 mg/kg) was 902.2 ng·h/g, the “AUClast of 100 in brain” value (iv, 1.5 mg/kg) was 10.8˜125.5 ng·h/g and the “AUClast of 100 in liver” value (iv, 1.5 mg/kg) was 758.6˜9081.0 ng·h/g.
